Source: patent US20090018111A1, “Novel Antimicrobial Medicament” (priority 2004, published 2009)
Read-outs that look alike come from different tables or passages of the source.

Experiments:
Experiment in all cases: Sensitivity test (agar dilution)
[1] = test system: E. cloacae GN7471; type: cell-based, Enterobacter cloacae; details: Enterobacter cloacae
Method: (§1) The antibacterial activities were tested against various 18 bacteria (27 standard strains) which are representative bacteria caused clinically infectious disease (Staphylococcus aureus 3 strains, Staphylococcus epidermidis 1 strain, Micrococcus luteus 1 strain, Streptococcus pyogenes 1 strain, Enterococcus faecalis 1 strain, Enterococcus faecium 1 strain, Bacillus subtilis 1 strain, Escherichia coli 3 strains, Klebsiella pneumoniae 1 strain, Proteus mirabilis 1 strain, Proteus vulgaris 2 strains, Pseudomonas aeruginosa 3 strains, Serratia marcescens 2 strains, Enterobacter aerogenes 1 strain, Stenotrophomonas maltophilia 1 strain, Enterobacter cloacae 1 strain, Citrobacter freundii 1 strain, Moraxella catarrhalis 2 strains).
(§2) According to the standard method of Japan Chemotherapeutic Society (Chemotherapy, vol. […], p 76-79 (1981)) the test was carried out using the agar dilution method. After dissolving test samples in distilled water, agar medium containing the test samples was prepared in such a manner that the final concentration became twice serial dilution by pouring serially diluted combination drug solution or a single drug solution into agar medium. As agar medium was used Mueller Hinton Agar medium (MHA). Then, each strain was cultivated over night at 37° C. in an incubator and suspended in buffered saline solution with gelatin (BSG) in the concentration of about 10^6 CFU/ml. The suspension (about 5 μl) containing test strains was inoculated to the medium containing the test samples by Micro Planter.
(§3) When the sample is subjected to sensitivity test, this mixed solution was diluted by twice serial dilution method.
(§4) Furthermore, when the drug is solely used, each test sample was used as it is, and diluted by twice serial dilution method from the maximum concentration to the minimum concentration.
(§5) FIC index based on MIC value was calculated. […] Namely, when FIC index calculated by the following formula is equal or less than 1, the enhanced effect of the combination drug in said ratio is considered as positive. When FIC index is over 1, the enhanced effect of the combination drug in said ratio is considered as negative.
(§6) Formula of FIC index: FIC index=(MIC of Drug A in combination/MIC of Drug A alone)+(MIC of Drug B in combination/MIC of Drug B alone) N.C. in tables means being not calculated.

[2] = test system: P. vurgalis OX-19; type: cell-based, Proteus vulgaris; details: Proteus vulgaris
Method: as §1, §2, §3, §4, §5, §6

[3] = test system: P. vulgaris GN7919; type: cell-based, Proteus vulgaris; details: Proteus vulgaris
Method: as §1, §2, §3, §4, §5, §6

[4] = test system: E. coli ML1410; type: cell-based, Escherichia coli; details: Escherichia coli
Method: as §1, §2, §3, §4, §5, §6

Structure (SMILES): C[C@H]1C=C(c2csc(SC3=C(C(=O)O)N4C(=O)[C@H]([C@@H](C)O)[C@H]4[C@H]3C)n2)CN1 [SM, (4R,5S,6S)-6-[(1R)-1-Hydroxyethyl]-4-methyl-3-({4-[(5S)-5-methyl-2,5-dihydro-1H-pyrrol-3-yl]-1,3-thiazol-2-yl}sulfanyl)-7-oxo-1-azabicyclo[3.2.0]hept-2-ene-2-carboxylic acid]
- MIC ([1]; GN7471, Concomitant (CAZ:SM = 1:1), E. cloacae GN7471, read-out: MIC concomitant): 8 µg/mL
- MIC ([1]; GN7471, Concomitant (CPFX:SM = 1:1), E. cloacae GN7471, read-out: MIC concomitant): 0.016 µg/mL
- MIC ([1]; GN7471, Concomitant (DRPM:SM = 1:1), E. cloacae GN7471, read-out: MIC concomitant): 0.031 µg/mL
- MIC ([1]; GN7471, Concomitant (IPM:SM = 1:1), read-out: MIC): 0.125 µg/mL
- MIC ([1]; GN7471, Concomitant (MEPM:SM = 1:1), read-out: MIC): 0.031 µg/mL
- MIC ([1]; GN7471, Concomitant (MEPM:SM = 1:2), read-out: MIC): 0.063 µg/mL
- MIC ([1]; GN7471, Concomitant (MEPM:SM = 1:4), read-out: MIC): 0.125 µg/mL
- MIC ([1]; GN7471, Concomitant (PAPM:SM = 1:1), E. cloacae GN7471, read-out: MIC concomitant): 0.125 µg/mL
- MIC ([1]; GN7471, Concomitant (PIPC:SM = 1:1), E. cloacae GN7471, read-out: MIC concomitant): 8 µg/mL
- MIC ([1]; GN7471, Concomitant drug (MEPM:SM = 2:1), read-out: MIC): 0.016 µg/mL
- MIC ([1]; GN7471, alone, read-out: MIC): 8 µg/mL
- MIC ([1]; GN7471, drug alone, E. cloacae GN7471, read-out: MIC alone): 8 µg/mL
- MIC ([2]; OX19, Concomitant (IPM:SM = 1:1)): 0.063 µg/mL
- MIC ([2]; OX19, Concomitant (MEPM:SM = 1:1)): ≤ 0.016 µg/mL
- MIC ([2]; OX19, Concomitant (MEPM:SM = 1:2)): ≤ 0.031 µg/mL
- MIC ([2]; OX19, Concomitant (MEPM:SM = 1:4)): ≤ 0.063 µg/mL
- MIC ([2]; OX19, Concomitant drug (MEPM:SM = 2:1)): 0.016 µg/mL
- MIC ([2]; OX19, alone): 0.063 µg/mL
- MIC ([2]; OX19, read-out: MIC concomitant, Concomitant (AZT:SM = 1:1), P. vurgalis OX-19): 0.004 µg/mL
- MIC ([2]; OX19, read-out: MIC concomitant, Concomitant (BIPM:SM = 1:1), P. vurgalis OX-19): 0.031 µg/mL
- MIC ([2]; OX19, read-out: MIC concomitant, Concomitant (CAZ:SM = 1:1), P. vurgalis OX-19): 0.008 µg/mL
- MIC ([2]; OX19, read-out: MIC concomitant, Concomitant (CPFX:SM = 1:1), P. vurgalis OX-19): 0.008 µg/mL
- MIC ([2]; OX19, read-out: MIC concomitant, Concomitant (DRPM:SM = 1:1), P. vurgalis OX-19): 0.031 µg/mL
- MIC ([2]; OX19, read-out: MIC concomitant, Concomitant (PAPM:SM = 1:1), P. vurgalis OX-19): 0.063 µg/mL
- MIC ([2]; OX19, read-out: MIC concomitant, Concomitant (PIPC:SM = 1:1), P. vurgalis OX-19): ≤ 0.002 µg/mL
- MIC ([3]; GN7919, Concomitant (AZT:SM = 1:1), P. vulgaris GN7919, read-out: MIC concomitant): 0.25 µg/mL
- MIC ([3]; GN7919, Concomitant (BIPM:SM = 1:1), P. vulgaris GN7919, read-out: MIC concomitant): 0.25 µg/mL
- MIC ([3]; GN7919, Concomitant (CAZ:SM = 1:1), P. vulgaris GN7919, read-out: MIC concomitant): 0.5 µg/mL
- MIC ([3]; GN7919, Concomitant (CPFX:SM = 1:1), P. vulgaris GN7919, read-out: MIC concomitant): 0.016 µg/mL
- MIC ([3]; GN7919, Concomitant (DRPM:SM = 1:1), P. vulgaris GN7919, read-out: MIC concomitant): 0.063 µg/mL
- MIC ([3]; GN7919, Concomitant (IPM:SM = 1:1), read-out: MIC): 0.5 µg/mL
- MIC ([3]; GN7919, Concomitant (MEPM:SM = 1:1), read-out: MIC): 0.031 µg/mL
- MIC ([3]; GN7919, Concomitant (MEPM:SM = 1:2), read-out: MIC): 0.063 µg/mL
- MIC ([3]; GN7919, Concomitant (MEPM:SM = 1:4), read-out: MIC): 0.125 µg/mL
- MIC ([3]; GN7919, Concomitant (PAPM:SM = 1:1), P. vulgaris GN7919, read-out: MIC concomitant): 0.5 µg/mL
- MIC ([3]; GN7919, Concomitant (PIPC:SM = 1:1), P. vulgaris GN7919, read-out: MIC concomitant): 0.5 µg/mL
- MIC ([3]; GN7919, Concomitant drug (MEPM:SM = 2:1), read-out: MIC): 0.016 µg/mL
- MIC ([3]; GN7919, alone, read-out: MIC): 1 µg/mL
- MIC ([3]; GN7919, drug alone, P. vulgaris GN7919, read-out: MIC alone): 1 µg/mL
- MIC ([4]; ML1410, Concomitant (AZT:SM = 1:1), E. coli ML1410, read-out: MIC concomitant): 0.063 µg/mL
- MIC ([4]; ML1410, Concomitant (BIPM:SM = 1:1), E. coli ML1410, read-out: MIC concomitant): 0.063 µg/mL
- MIC ([4]; ML1410, Concomitant (CAZ:SM = 1:1), E. coli ML1410, read-out: MIC concomitant): 0.063 µg/mL
- MIC ([4]; ML1410, Concomitant (CPFX:SM = 1:1), E. coli ML1410, read-out: MIC concomitant): 0.125 µg/mL
- MIC ([4]; ML1410, Concomitant (DRPM:SM = 1:1), E. coli ML1410, read-out: MIC concomitant): 0.031 µg/mL
- MIC ([4]; ML1410, Concomitant (IPM:SM = 1:1), read-out: MIC): 0.125 µg/mL
- MIC ([4]; ML1410, Concomitant (MEPM:SM = 1:1), read-out: MIC): ≤ 0.016 µg/mL
- MIC ([4]; ML1410, Concomitant (MEPM:SM = 1:2), read-out: MIC): ≤ 0.031 µg/mL
